From patent US8334260B2, “sFRP and peptide motifs that interact with sFRP and methods of their use” (The United States of America as represented by the …, priority 2001, dated 2012) come the findings set out here.

Experiment [1] relates to sFRP-1. Briefly: ELISA of peptide/alkaline phosphatase fusion proteins binding to sFRP-1. Set-up: species or system human. Particulars: bacterial broths, sFRP-1-coated versus BSA-coated wells, pNPP at 405 nm. Here is the method: Synthetic oligonucleotides encoding peptides of interest were ligated into the bacterial alkaline phosphatase fusion vector, pMY101, which had been digested with Sal I and Xho I (Yamabhai and Kay, Anal Biochem. 247:143-151, 1997). All recombinants were confirmed by DNA sequence analysis. Bacteria (E. coli, strain DH5αF′) transformed with the peptide/AP constructs were grown in Luria broth containing ampicillin (50 μg/mL) to an optical density of 0.5 (at 600 nm), treated with 1 mM isopropyl-β-D-thiogalactopyranoside and then incubated overnight at 37° C. Conditioned medium containing peptide/AP chimera was recovered by centrifugation at 7000 g for 15 minutes. Chimeric proteins in conditioned medium were stable when stored for a few weeks at 4° C. or for several months when stored at −80° C.
ELISA experiments were generally performed as previously described (Uren et al., J. Biol. Chem. 275:4374-4382, 2000), with modifications depending on the sFRP binding partner to be tested. Typically, wells were coated with 0.5 or 1 μg of sFRP-1, blocked with BSA (0.2%, 1%, or 4%) and then incubated with putative binding partner overnight at room temperature. When investigating the binding of peptide/AP chimeras, after aspiration of bacterial broths, wells were washed and incubated with p-nitrophenolphosphate (pNPP). Color development was determined at 405 nm with an ELISA reader. […] Following overnight incubation at room temperature, RANKL solutions were aspirated and bound RANKL was detected by sequential incubations with primary antibody to RANKL, secondary antibody coupled with AP and pNPP. […]
A set of peptide-alkaline phosphatase fusion proteins containing the peptide motifs (SEQ ID NOS: 14, 11, and 27) were generated. […] This qualitative difference between A-C2 (SEQ ID NO: 14), A-E4 (SEQ ID NO: 1), and B-B9 (SEQ ID NO: 27) derivatives was consistent with a quantitative difference noted during the ELISA screening of the respective phage. […]
A general note: An ELISA detects its analyte on a solid surface through an enzyme-linked reagent.

The subject of experiment [2] is sFRP-1. Briefly: Competition ELISA: soluble peptides against peptide/AP chimera binding to sFRP-1. Set-up: species or system human. Here is the method:
(§1) ELISA experiments were generally performed as previously described (Uren et al., J. Biol. Chem. 275:4374-4382, 2000), with modifications depending on the sFRP binding partner to be tested. Typically, wells were coated with 0.5 or 1 μg of sFRP-1, blocked with BSA (0.2%, 1%, or 4%) and then incubated with putative binding partner overnight at room temperature. When investigating the binding of peptide/AP chimeras, after aspiration of bacterial broths, wells were washed and incubated with p-nitrophenolphosphate (pNPP). Color development was determined at 405 nm with an ELISA reader. For competition experiments, soluble peptides were preincubated with peptide/AP chimeras in bacterial broth for 30 min at room temperature prior to transfer into ELISA wells coated with sFRP-1 or BSA. When testing RANKL binding to sFRP-1, serial dilutions of soluble RANKL were assayed in replicate. Following overnight incubation at room temperature, RANKL solutions were aspirated and bound RANKL was detected by sequential incubations with primary antibody to RANKL, secondary antibody coupled with AP and pNPP. Similar experimental designs were employed when other TNFα family members were examined for binding to sFRPs, and when sFRP-1 derivatives or sFRP-2 were the binding targets for RANKL.

Experiment [3] deals with RAW264.7 cells. The experiment can be described thus: RANKL-independent (TNFα-dependent) osteoclast formation in RAW264.7+TNFα+TGFβ. It counts as cell-based. Particulars: present during the first three days of culture. On the procedure: The effect of sFRP-1 was assessed upon a RANKL-independent method of osteoclast formation using the monocyte/macrophage cell line RAW264.7 (Quinn et al., Journal of Bone and Mineral Research. 16, 1787-1794, 2001) and was compared with that of osteoprotegerin (FIG. 14).
The effect of bacterially expressed CRD was assessed in three different cell culture models of osteoclast formation. These were: (1) bone marrow cells+RANKL+M-CSF, (2) the macrophage/monocyte cell line RAW264.7+RANKL, and (3) RAW264.7+TNFα+TGFβ (Horwood et al., Journal of Immunology 166:4915-4921, 2001; Quinn et al., Journal of Bone and Mineral Research. 16, 1787-1794, 2001).

Experiment [4] addresses T1, RANKL (Homo sapiens, UniProt O14788).
T1 construct: For ELISA assays, recombinant soluble RANKL and TRAIL, and antibodies directed against these proteins were obtained from PeproTech; purchased PeproTech (Rocky Hill, N.J.)
T1 sequence (O14788 140-317): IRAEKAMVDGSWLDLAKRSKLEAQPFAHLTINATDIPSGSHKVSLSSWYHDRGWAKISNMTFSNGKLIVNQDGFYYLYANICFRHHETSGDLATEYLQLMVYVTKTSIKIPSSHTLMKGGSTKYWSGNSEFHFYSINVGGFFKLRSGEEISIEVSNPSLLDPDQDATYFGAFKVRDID
The experiment can be described thus: ELISA of soluble RANKL binding to wells coated with sFRP-1, sFRP-1 derivatives or sFRP-2. Particulars: ELISA, coated wells versus BSA. On the procedure:
as §1
The possibility that sFRP-1 (SEQ ID NO: 3) and RANKL interact directly with each other was tested using an ELISA assay. […] RANKL was then incubated in these wells and in adjacent wells that had only been treated with BSA.

Where no end group is shown, it is not given here.

For the molecule “Alkaline phosphatase: alkaline phosphatase itself, control for the fusion proteins [reference compound]”, the “specific binding of peptide/alkaline phosphatase fusion protein to sFRP-1” value in experiment [1] is reported as “no preferential binding”. Still for that read-out and setting: the entry for “A-C2 (SEQ ID NO: 14)/alkaline phosphatase fusion protein: A-C2 peptide fused to bacterial alkaline phosphatase (QGTLVDGRWLQL; also: fused to bacterial alkaline phosphatase)” is “strong, highly specific binding”. As to “WECAMYDGRCLT (Peptide that binds sFRP) [A-D9]”, the “inhibition of A-D9/AP chimera binding to sFRP-1” value in experiment [2] (soluble peptide) is recorded as “blocked in a dose-dependent manner”. In experiment [2] (soluble peptide preincubated 30 min with chimera), the “inhibition of A-C2/alkaline phosphatase fusion protein binding to sFRP-1” value is recorded as “inhibited binding”.

For the molecule “A-D9/AP chimera: A-D9 peptide fused to alkaline phosphatase (WECAMYDGRCLT; cysteine pairing not given here; also: fused to alkaline phosphatase)”, in experiment [1], the “specific binding of peptide/alkaline phosphatase fusion protein to sFRP-1” value is “bound specifically”.

B1: OPG: osteoprotegerin, soluble TNF receptor family factor that binds RANKL (protein, UniProt O00300 22-401, looked up)
Tumor necrosis factor …: ETFPPKYLHYDEETSHQLLCDKCPPGTYLKQHCTAKWKTVCAPCPDHYYTDSWHTSDECLYCSPVCKELQYVKQECNRTHNRVCECKEGRYLEIEFCLKHRSCPPGFGVVQAGTPERNTVCKRCPDGFFSNETSSKAPCRKHTNCSVFGLLLTQKGNATHDNICSGNSESTQKCGIDVTLCEEAFFRFAVPTKFTPNWLSVLVDNLPGTKVNAESVERIKRQHSSQEQTFQLLKLWKHQNKDQDIVKKIIQDIDLCENSVQRHIGHANLTFEQLRSLMESLPGKKVGAEDIEKTIKACKPSDQILKLLSLWRIKNGDQDTLKGLMHALKHSKTYHFPKTVTQSLKKTIRFLHSFTMYKLYQKLFLEMIGNQVQSVKISCL
As for B1, the “effect on TNFα-dependent osteoclast formation” value in experiment [3] is on record as “no effect”.

B2: Al derivative: sFRP-1 deletion mutant that consists essentially of the Fz CRD (protein)
chain: MGIGRTEGGRRGAALGVLLALGGASGRGLGSEYDYVSFQSDIGPYQSGRFYTKPPQCVDIPADLRLCHNVGYKKMVLPNLLEHETMAEVKQQASSWVPLLNKNCHAGTQVFLCSLFAPVCLDRPIYPCRWLCEAVRDSCEPVMQFFGFYWPEMLKCDKFPEGDVCIAMTPQAYVEQKLISEEDLNSAVDHHHHHH
modifications: Fusion protein
notes: sFRP-1 deletion mutant that consists essentially of the Fz CRD
Turning to B2, the “binding to RANKL” value in experiment [4] was “retained good binding”.
